The structures appear in SMILES notation. Bridge positions count the residues as written; N and C are the ends. Square brackets hold non-standard residues; d marks the D form. Peptide text beside a SMILES is read from it. pGlu = O=C1CC[C@@H](C(=O)O)N1

This assay deals with corpora allata which have been surgically removed from newly molted 5 stadium Manduca sexta larvae. The assay can be described thus: in vitro JH biosynthesis assay (rate of [14C]JH biosynthesis by excised CC/CA complex). Format: cell-based. The method, then:
The biological activity of native LAS and LASA's is tested in an in vitro JH-biosynthesis assay using newly molted 5th stadium Manduca sexta larval CC/CA complex. The biological activity of each of the LAS and LASA preparations made according to the following examples is assayed according to a procedure essentially as described (except for media employed) by Pratt and Tobe, 1974 Life Sci vl4:575-586, which is incorporated by reference. This procedure measures the rate of biosynthesis of Juvenile Hormone (JH) by the corpora allata which have been surgically removed from newly molted 5 stadium Manduca sexta larvae. One corpus cardiacum-corpus allatum complex is maintained in 100 µl of TC-199 medium (components of which are shown below) and Hank's salts, and is shaken using a mechanical shaker. The sample to be tested for LAS-like activity is dried and dissolved in TC-199 medium. Then an equal volume of TC-199 medium containing [^14C] methionine is added, and allowed to incubate for 4 hours. […] is extracted from the medium using iso-octane and the extract is assayed by liquid scintillation counting. The rate of biosynthesis by glands exposed to the sample is compared to the rate observed for control glands. The presence of LAS or LASA causes a decrease in the rate of biosynthesis.

Consider `CC[C@H](C)[C@@H]1NC(=O)[C@@H]2CCCN2C(=O)[C@H](CC(N)=O)NC(=O)[C@H](Cc2ccccc2)NC(=O)[C@H](Cc2ccc(O)cc2)NC(=O)[C@@H](NC(=O)[C@H](CCC(N)=O)NC(=O)[C@H](CCCNC(=N)N)NC(=O)[C@H](Cc2ccccc2)NC(=O)[C@H](CCCNC(=N)N)NC(=O)[C@@H](NC(=O)[C@@H]2CCC(=O)N2)C(C)C)CSSC[C@@H](C(=O)N[C@@H](Cc2ccccc2)C(=O)O)NC(=O)[C@H](CO)NC1=O` [LAS, pGlu-Val-Arg-Phe-Arg-Gln-Cys-Tyr-Phe-Asn-Pro-Ile-Ser-Cys-Phe-OH] ([pGlu]VRFRQCYFNPISCF-OH; disulfide 7-14), for which, for the setting “crude oxidized synthetic peptide, before reversed phase LC purification”, the “allatostatin activity in bioassay” value was “exhibits allatostatin activity”. Consider `CC[C@H](C)[C@@H]1NC(=O)[C@@H]2CCCN2C(=O)[C@H](CC(N)=O)NC(=O)[C@H](Cc2ccccc2)NC(=O)[C@H](Cc2ccc(O)cc2)NC(=O)[C@@H](NC(=O)[C@H](CCC(N)=O)NC(=O)[C@H](CCCNC(=N)N)NC(=O)[C@H](Cc2ccccc2)NC(=O)[C@H](CCCNC(=N)N)NC(=O)[C@@H](NC(=O)[C@@H]2CCC(=O)N2)C(C)C)CSSC[C@@H](C(=O)N[C@@H](Cc2ccccc2)C(N)=O)NC(=O)[C@H](CO)NC1=O` [amidated form] ([pGlu]VRFRQCYFNPISCF-NH2; disulfide 7-14), for which, for the setting “amidated carboxy terminus compared with Native LAS with free carboxy terminus, the test is not given”, the level of activity result is reported as “same level of activity”.

Source of the values: patent EP0421935B1, “Insect neuropeptides” (Novartis AG, priority 1989, dated 1999).
